Data as given in patent publication US20120100073A1, “PET RADIOTRACERS FOR IMAGING FATTY ACID METABOLISM AND STORAGE” (WASHINGTON UNIVERSITY, priority 2009, published 2012).

How the values were obtained:
[1] = test system: β-oxidation; details: literature ref. 17, cited from earlier work
[2] = microPET imaging and myocardial time-activity curves (tracer kinetics) in a fed rat; format: in vivo
Procedure: Animal Preparation. All animal procedures are conducted in compliance with the guidelines for the care and use of research animals established by the Animal Studies Committee of Washington University. Animal preparation is performed as described previously.^24-26 Rats are housed in metabolism cages and anesthetized by inhalation of […] isoflurane administered via an induction chamber. Anesthesia can be maintained throughout the imaging session by delivering 1%-1.5% isoflurane via a custom-designed nose cone. Venous access is via the right jugular vein. Body temperature can be maintained using a circulating water blanket and a heat lamp. Heart and respiration rates can be monitored throughout the process.
PET Acquisition. The animals can be secured in a custom-designed acrylic restraining device and placed inside the field of view of the small-animal imaging PET scanner. Imaging acquisition starts Ss after a bolus injection of tracer via the right jugular catheter. The imaging protocol consists of dynamic acquisition of microPET images of ^11C-palmitate (5-7mCI) followed by ^18F-FAA or by ^18F-VLDL (5-7mCi) alone. Dynamic mage acquisition during ^11C-palmitate and either ^18F-FAA or ^18F-FAA-VLDL can be 30 and 60 min, respectively. The total time of the imaging session can be ˜3 hrs. Three whole-blood arterial samples are collected throughout the study to measure whole blood glucose (5 μL), free fatty acid (20 μL), and insulin (5 μL) levels to confirm the metabolic state of the animals,
Image Processing/Analysis. Dynamic images can be reconstructed using filtered backprojection with a 2.5 zoom on the heart and 40 frames per imaging session. The input function is reconstructed by applying the hybrid image-blood-sampling algorithm as described previously.^25 A myocardial region of interest is placed to generate a myocardial time-activity curve (TAC). The ^18F-FAA and ^18F-FAA-VLDL blood and myocardial TACs can be compared with the ^11C-palmitate TACs for both defiing characteristics (e.g., height and shape) as well as similar kinetics based exponential curve-fitting algorithms. […]

[3] = previous studies; rapid phase = oxidation, slow phase = storage; cited from earlier work

SMILES: CCCC([18F])CCCCCCCSCCCCC(=O)O (racemic) [FTHA, 14-(R,S)-^18F-fluoro-6-thiaheptadecanoic acid]
- uptake and retention versus inhibition of β-oxidation by hypoxia [1]: insensitive to the inhibition of β-oxidation by hypoxia

SMILES: O=C(O)CCSCCCCCCCCCCCC[18F] [FTP, ^18F-fluoro-thia-palmitate]
- deposition versus β-oxidation ([1]; normal oxygenation and hypoxic conditions): proportional to β-oxidation under normal oxygenation and hypoxic conditions

SMILES: CCCCCCCCCCCCCCC[11C](=O)O [^11C-palmitate]
- myocardial tracer uptake and washout pattern ([2]; blood and myocardial TACs, fed rat): significant tracer uptake with rapid bi-phasic washout
- tracer clearance late after injection ([2]; blood and myocardium, up to 60 mins post-tracer injection): tracer increased in both, blood and myocardium, 25 mins post tracer injection
- washout kinetics from heart [3]: biphasic washout kinetics from heart

SMILES: O=C(O)CCCCCCCCCCCCCCc1ccc(OCC[18F])cc1 [^18F-FAA]
- tracer clearance late after injection ([2]; rat, in vivo): still prevalent at 60 mins post-tracer injection

SMILES: O=C(O)CCCCCCCCCCCCCCc1ccc(I)cc1 [^123I-lPPA, 15-(p-iodophenyl)-pentadecanoic acid]
- washout kinetics from heart [3]: biphasic washout kinetics from heart
